Source: US9271978B2 (Zenith Epigenetics Corp., priority 2012, dated 2016)

Legend:
Parameters in all cases: key: Active: Compounds with an IC50 value less than 30 μM were deemed to be active.; Not Active: Compounds with an IC50 value less than 30 μM were deemed to be active
[1] = molecular target: T1, second bromodomain of Brd2 (BRD2(2)) (Homo sapiens, UniProt P25440); experiment: Inhibition of tetra-acetylated histone H4 binding to Brd2 bromodomain 2 (TR-FRET); settings: tetra-acetylated histone H4 peptide, active = IC50 <30 μM
T1 construct: made in house; host or cells: E. coli BL21 (DE3)
Method: (§1) Proteins were cloned and overexpressed with a N-terminal 6×His tag, then purified by nickel affinity followed by size exclusion chromatography. Briefly, E. coli BL21 (DE3) cells were transformed with a recombinant expression vector encoding N-terminally Nickel affinity tagged bromodomains from Brd2, Brd3, Brd4. Cell cultures were incubated at 37° C. with shaking to the appropriate density and induced overnight with IPTG. The supernatant of lysed cells was loaded onto Ni-IDA column for purification. Eluted protein is pooled, concentrated and further purified by size exclusion chromatography. Fractions representing monomeric protein were pooled, concentrated, aliquoted, and frozen at −80° C. for use in subsequent experiments.
(§2) Binding of tetra-acetylated histone H4 and BET bromodomains was confirmed by a Time Resolved Fluorescence Resonance Energy Transfer (TR-FRET) method. N-terminally His-tagged bromodomains (200 nM) and biotinylated tetra-acetylated histone H4 peptide (25-50 nM, Millipore) were incubated in the presence of Europium Cryptate-labeled streptavidin (Cisbio Cat. #610SAKLB) and XL665-labeled monoclonal anti-His antibody (Cisbio Cat. #61HISXLB) in a white 96 well microtiter plate (Greiner). For inhibition assays, serially diluted test compound was added to these reactions in a 0.2% final concentration of DMSO. Final buffer concentrations were 30 mM HEPES pH 7.4, 30 mM NaCl, 0.3 mM CHAPS, 20 mM phosphate pH 7.0, 320 mM KF, 0.08% BSA). After a 2-h incubation at room temperature, the fluorescence by FRET was measured at 665 and 620 nm by a SynergyH4 plate reader (Biotek). Illustrative results with the first bromodomain of Brd4 and the second bromodomain of Brd2 are shown below. The binding inhibitory activity was shown by a decrease in 665 nm fluorescence relative to 620 nm. IC50 values were determined from a dose response curve.

[2] = molecular target: T2, Brd4 bromodomain 1 (BRD4(1)) (Homo sapiens, UniProt O60885); experiment: Inhibition of tetra-acetylated histone H4 binding to Brd4 bromodomain 1 (TR-FRET); settings: tetra-acetylated histone H4 peptide, active = IC50 <30 μM
T2 construct: Illustrative results with the first bromodomain of Brd4; made in house; host or cells: E. coli BL21 (DE3)
Method: as §1, §2

hIL-6 mRNA = experiment: Inhibition of hIL-6 mRNA transcription in U937 cells; format: cell-based, human; settings: LPS stimulation, active = IC50 <30 μM
Method: In this example, hIL-6 mRNA in tissue culture cells was quantitated to measure the transcriptional inhibition of hIL-6 when treated with a compound of the present disclosure.
A human leukemic monocyte lymphoma cell line (U937) was plated (3.2×10^4 cells per well) in a 96-well plate in […] RPMI-1640 containing 10% FBS and penicillin/streptomycin, and differentiated into macrophages for 3 days in 60 ng/mL PMA ([…]) at 37° C. in 5% CO2 prior to the addition of the compound of interest. The cells were pretreated for 1 h with the test compound prior to stimulation with 1 ug/mL lipopolysaccharide from Escherichia coli. The cells were incubated at 37° C. for 3 h before the cells were harvested. At time of harvest, the spent media was removed from the cells and the cells were rinsed in […] PBS. Cell lysis solution (70 μL) was added the cells in each well and incubated for 5-10 min at room temperature, to allow for complete cell lysis and detachment. mRNA was then prepared using the “mRNA Catcher PLUS plate” (Invitrogen), according to the protocol supplied. After the last wash, as much wash buffer as possible was aspirated without allowing the wells to dry. Elution buffer (E3, 70 μL) was then added to each well. mRNA was then eluted by incubating the mRNA Catcher PLUS plate with Elution Buffer for 5 min at 68° C. and then immediately placing the plate on ice.
The eluted mRNA isolated was then used in a one-step quantitative real-time PCR reaction, using components of the Ultra Sense Kit together with Applied Biosystems primer-probe mixes. Real-time PCR data was analyzed, normalizing the Ct values for hIL-6 to an internal control, prior to determining the fold induction of each unknown sample, relative to the control.

T1 sequence (P25440 344-453 limits assumed): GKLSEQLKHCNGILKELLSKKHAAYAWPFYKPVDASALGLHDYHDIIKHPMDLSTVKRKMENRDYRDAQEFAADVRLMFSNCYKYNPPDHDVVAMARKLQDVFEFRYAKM

| SMILES | FRET activity (IC50 <30 μM) BRD2(2) [1] | FRET activity (IC50 <30 μM) BRD4(1) [2] | IL-6 activity (IC50 <30 μM) (hIL-6 mRNA) |
| --- | --- | --- | --- |
| Cc1noc(C)c1-c1cc(NCc2ccccc2)c(=O)n(Cc2ccccc2)c1 [Example 74, 1-Benzyl-3-(benzylamino)-5-(3,5-dimethylisoxazol-4-yl)pyridin-2(1H)-one] | Active | Active |  |
| Cc1noc(C)c1-c1ccc(=O)n(Cc2ccc(OC(F)(F)F)cc2)n1 [Example 76, 6-(3,5-Dimethylisoxazol-4-yl)-2-(4-(trifluoromethoxy)benzyl)pyridazin-3(2H)-one] | Active | Active |  |
| Cc1noc(C)c1-c1ccc(=O)n(Cc2ccc3ccccc3c2)n1 [Example 77, 6-(3,5-Dimethylisoxazol-4-yl)-2-(naphthalen-2-ylmethyl)pyridazin-3(2H)-one] | Active | Active |  |
| O=c1ccc(-c2cncs2)cn1Cc1ccccc1 [Example 80, 1-Benzyl-5-(thiazol-5-yl)pyridin-2(1H)-one] | Active | Not Active |  |
| Cc1[nH]cnc1-c1ccc(=O)n(Cc2ccccc2)c1 [Example 81, 1-Benzyl-5-(5-methyl-1H-imidazol-4-yl)pyridin-2(1H)-one] | Active | Not Active |  |
| Cc1noc(C)c1-c1cc(C)c(=O)n(CC2CC2)n1 [Example 85, 2-(Cyclopropylmethyl)-6-(3,5-dimethylisoxazol-4-yl)-4-methylpyridazin-3(2H)-one] | Active | Active |  |
| Cc1n[nH]c(C)c1-c1ccc(=O)n(Cc2ccccc2)n1 [Example 86, 2-Benzyl-6-(3,5-dimethyl-1H-pyrazol-4-yl)pyridazin-3(2H)-one] | Active | Active |  |
| Cc1noc(C)c1-c1ccc(=O)n(CC2CCC2)n1 [Example 88, 2-(Cyclobutylmethyl)-6-(3,5-dimethylisoxazol-4-yl)pyridazin-3(2H)-one] | Active | Active |  |
| Cc1noc(C)c1-c1ccc(=O)n(Cc2c(F)cc(F)cc2F)n1 [Example 92, 6-(3,5-Dimethylisoxazol-4-yl)-2-(2,4,6-trifluorobenzyl)pyridazin-3(2H)-one] | Active | Active |  |
| Cc1noc(C)c1-c1ccc(=O)n(Cc2cnoc2)n1 [Example 97, 6-(3,5-Dimethylisoxazol-4-yl)-2-(isoxazol-4-ylmethyl)pyridazin-3(2H)-one] | Not Active | Active |  |
| COc1ccc(Oc2ccc(=O)n(Cc3ccccc3)n2)cc1OC [Example 100, 2-Benzyl-6-(3,4-dimethoxyphenoxy)pyridazin-3(2H)-one] | Active | Not Active |  |
| Cc1noc(C)c1-c1ccc(=O)n(C(C)(C)c2ccccc2)c1 [Example 106, 5-(3,5-Dimethylisoxazol-4-yl)-1-(2-phenylpropan-2-yl)pyridin-2(1H)-one] | Active | Active |  |
| Cc1noc(C)c1-c1ccc(=O)n(Cc2ccccc2)c1Cl [Example 114, 1-Benzyl-6-chloro-5-(3,5-dimethylisoxazol-4-yl)pyridin-2(1H)-one] | Active | Active |  |
| Cc1noc(C)c1-c1ccc(=O)n(Cc2ccccc2)c1C [Example 115, 1-Benzyl-5-(3,5-dimethylisoxazol-4-yl)-6-methylpyridin-2(1H)-one] | Active | Active |  |
| COc1cc(-c2ccc(=O)n(Cc3ccc(S(C)(=O)=O)cc3)n2)cc(OC)c1OC [Example 116, 2-(4-(Methylsulfonyl)benzyl)-6-(3,4,5-trimethoxyphenyl)pyridazin-3(2H)-one] | Active | Active |  |
| Cc1noc(C)c1-c1ccc(=O)n(Cc2ccc(F)cc2Cl)c1 [Example 140, 1-(2-Chloro-4-fluorobenzyl)-5-(3,5-dimethylisoxazol-4-yl)pyridin-2(1H)-one] | Active | Active |  |
| Cc1noc(C)c1-c1ccc(=O)n(Cc2ccc3[nH]cnc3c2)n1 [Example 143, 2-((1H-Benzo[d]imidazol-5-yl)methyl)-6-(3,5-dimethylisoxazol-4-yl)pyridazin-3(2H)-one] | Active | Active |  |
| Cc1noc(C)c1-c1ccc(=O)n(Cc2cc(F)c(F)c(F)c2)n1 [Example 144, 6-(3,5-Dimethylisoxazol-4-yl)-2-(3,4,5-trifluorobenzyl)pyridazin-3(2H)-one] | Active | Active |  |
| Cc1noc(C)c1-c1ccc(=O)n(Cc2ccc(S(C)(=O)=O)cc2)c1 [Example 145, 5-(3,5-Dimethylisoxazol-4-yl)-1-(4-(methylsulfonyl)benzyl)pyridin-2(1H)-one] | Active | Active |  |
| Cc1noc(C)c1-c1ccc(=O)n(S(=O)(=O)c2ccc(Cl)cc2)c1 [Example 150, 1-((4-Chlorophenyl)sulfonyl)-5-(3,5-dimethylisoxazol-4-yl)pyridin-2(1H)-one] | Not Active | Active |  |
| Cc1noc(C)c1-c1ccc(=O)n(Cc2ncccn2)c1 [Example 163, 5-(3,5-Dimethylisoxazol-4-yl)-1-(pyrimidin-2-ylmethyl)pyridin-2(1H)-one] | Active | Active |  |
| Cc1noc(C)c1-c1nn(Cc2ccccc2)c(=O)c2ccccc12 [Example 170, 2-Benzyl-4-(3,5-dimethylisoxazol-4-yl)-2H-phthalazin-1-one] | Active | Not Active |  |
| COc1ccc(-c2nn(Cc3ccccc3)c(=O)c3ccccc23)c(OC)c1OC [Example 177, 2-Benzyl-4-(2,3,4-trimethoxyphenyl)phthalazin-1(2H)-one] | Active | Active |  |
| Cc1noc(C)c1-c1cc(Nc2cccnn2)c(=O)n(Cc2ccccc2)c1 [Example 221, 1-benzyl-5-(3,5-dimethylisoxazol-4-yl)-3-(pyridazin-3-ylamino)pyridin-2(1H)-one] |  | Active | Not Active |
